Entries after “also recorded” stand apart in the source; their conditions may differ.
System: thymocytes
Test: Proliferation of anti-CD3e activated thymocytes in serum-free medium
Format: cell-based, BALB/c mouse
Conditions: for proliferative response: anti-CD3, retinol 3×10^-6 M or 14HRR 6×10^-7 M; for growth over a four day period: retinol 3×10^-6 M, 14HRR 6×10^-7 M, human serum 3%
Method: FIG. 14A: Purified BALB/c thymocytes were activated with immobilized anti-CD3e antibody and cultivated for four days in ITLB medium with or without retinol (3×10^-6 M), 14HRR (6×10^-7 M) (fresh 14HRR was added every 12 hours), human serum (3%) or FCS (10%) at the cellular densities shown. Proliferation was assayed by tritiated thymidine incorporation into cellular DNA. The SDs were below 20%.
FIG. 14B: BALB/c thymocytes (10^6 /ml) were added to microtiter plates coated with titrated amounts of anti-CD3e antibody with […] retinol or without, as indicated. Proliferation was measured in hexaduplicate wells on day 3 by ^3 H thymidine incorporation assay.
FIG. 14C: BALB/c thymocytes (3×10^6 /ml) were activated with anti-CD3e mAb as FIG. 1A. The total number of viable cells was determined by counting trypan blue-excluding cells, and those of blast cells by counting viable large cells in six replicate wells. Because of the relatively low cell density required in the culture (see FIG. 14A), the numbers reported for blast cells are best estimates.
Purified thymocytes (5×10^5 cells/well) were stimulated by TCR crosslinking with immobilized anti-CD3e antibody (FIG. 15A) or 0.4 μg/ml Con A (FIG. 15B) in serum-free ITLB medium. The indicated amounts of retinoids were added either once at the beginning of the experiment (marked as "1x") or every 12 hours thereafter (marked as "6x"). DNA synthesis was measured after 72 hours by tritiated thymidine uptake as described.
Purified thymocytes (10^5 cells/well) were activated with anti-CD3 antibody in ITLB medium with or without retinol (3×10^-6 M), 14HRR (6×10^-7, added every 12 hours or human serum (3%)). DNA synthesis was measured daily by a 4 hour pulse of tritiated thymidine. SDs were ≤12%.
Thymocytes (5×10^4 /well) were activated by immobilized anti-CD3 mAb in medium ITLB. Retinol (2×10^-6 M) was added at initiation of culture, or delayed by 12 hours and 24 hours, respectively, or omitted altogether. ^3 H thymidine pulses of 4 hours were used to measure DNA synthesis of hexaduplicate wells. (SDs were 20% or less.)
Thymuses of 3 to 6-week-old BALB/c mice were teased in serum-free RPMI medium supplemented with 1% BSA, 10^-6 M linoleic acid and antibiotics. Depletion of accessory cells was achieved by two cycles of complement-dependent lysis with a mixture of anti-IA^d (5 μg/ml) and anti-Itd (1:500 diluted ascites fluid). Briefly, cells were incubated on ice for 30 minutes with Ia antibodies, spun down, resuspended in 1:40 diluted rabbit complement, and incubated at 37° C. for 45 minutes. Incubations and two subsequent washes were carried out with RPMI medium containing 1% BSA. Cell viability was evaluated by trypan blue dye exclusion. To determine the extent of depletion of accessory cells, samples were stained with FITC-conjugated anti-Fc receptor antibody and analyzed by flow cytometry on a FACScan instrument (Becton Dickinson). No FcR-bearing cells were detected by this procedure.
Cells were cultured in serum-free medium, referred to as ITLB, containing RPMI 1640 supplemented with 8×10^-7 M insulin (5 μg/ml), 7×10^-8 M transferrin (5 μg/ml), 2×10^-6 M linoleic acid, 2×10^-6 M delipidated BSA (0.12 mg/ml), 2 mM L-glutamine, 1 mM sodium pyruvate and antibiotics. They were seeded into 96-well flat-bottom plates at varying cellular densities in a final volume of 100 μl. In control experiments, cells were cultured in medium containing 10% FCS or 3% human serum and 5×10^-5 M 2 ME. T cells and thymocytes were activated with immobilized, purified anti-mab CD3e or by the addition of Con A in the presence or absence of different concentrations of retinoids. Unless indicated otherwise, retinoids were replenished every 12 hours to maintain a reasonably constant concentration of these labile compounds in culture. […]

| Compound | proliferative response | potency relative to retinol in supporting T cell proliferation (provided at 12 hour intervals) | growth over a four day period | effect of a single addition at initiation of culture (single addition) | response when supplied together with activation signal (no delay) | reduction of sufficient retinol concentration on repeated feeding (replenished twice daily, 3-day culture) | viability (retinol by itself) | effect of 12-hour delay in addition (retinol delayed 12 hours) | effect of delayed addition (retinol delayed by 24 hours) | T cell activation (retinol on its own) |
| --- | --- | --- | --- | --- | --- | --- | --- | --- | --- | --- |
| CC(C=CC=C(C)C(O)CO)=CC=C1C(C)=CCCC1(C)C (stereo not drawn) [14HRR, 14-hydroxy-4,14-retro-retinol] | vigorous responses were elicited | as potent as retinol | exponential growth | ineffective; also recorded: does not enable sustained proliferation; also recorded: insufficient to drive T cell proliferation | – | – | – | – | – | – |
| CC1=C(/C=C/C(C)=C/C=C/C(C)=C/CO)C(C)(C)CCC1 [retinol, all-trans retinol] | vigorous responses were elicited | – | exponential growth | – | highest responses | five- to ten-fold lower | maintain a higher state of viability than anti-CD3e "only" stimulation, or omission of test reagents altogether | stagnation | complete failure of activation | no discernible T cell activation |

Source: patent publication US5908868A, “Retinol derivatives useful for enhancing immune response” (priority 1995, dated 1999)
